Results taken from ChEMBL document CHEMBL5126586, “Chemical analysis of amyloid β aggregation inhibitors derived from Geranium thunbergii” (Bioorg Med Chem, 2022).

Tests used:
[1] = target: T1, Amyloid-beta precursor protein (Homo sapiens, UniProt P05067); assay: Inhibition of amyloid beta 1 to 42 aggregation (unknown origin) incubated for 24 hrs by inverted fluorescence microscopic analysis
[2] = target: T1, Amyloid-beta precursor protein; assay: Inhibition of amyloid beta 1 to 42 aggregation (unknown origin) incubated for 24 hrs by inverted fluorescence microscopic analysis relative to control; settings: concentration not given here
[3] = target: T1, Amyloid-beta precursor protein; assay: Inhibition of amyloid beta 1 to 42 aggregation (unknown origin) incubated for 24 hrs by ThT fluorescence assay relative to control; settings: concentration not given here
[4] = target: T1, Amyloid-beta precursor protein; assay: Inhibition of amyloid beta 1 to 42 aggregation (unknown origin) incubated for 24 hrs by ThT fluorescence assay

T1 sequence (P05067 whole entry): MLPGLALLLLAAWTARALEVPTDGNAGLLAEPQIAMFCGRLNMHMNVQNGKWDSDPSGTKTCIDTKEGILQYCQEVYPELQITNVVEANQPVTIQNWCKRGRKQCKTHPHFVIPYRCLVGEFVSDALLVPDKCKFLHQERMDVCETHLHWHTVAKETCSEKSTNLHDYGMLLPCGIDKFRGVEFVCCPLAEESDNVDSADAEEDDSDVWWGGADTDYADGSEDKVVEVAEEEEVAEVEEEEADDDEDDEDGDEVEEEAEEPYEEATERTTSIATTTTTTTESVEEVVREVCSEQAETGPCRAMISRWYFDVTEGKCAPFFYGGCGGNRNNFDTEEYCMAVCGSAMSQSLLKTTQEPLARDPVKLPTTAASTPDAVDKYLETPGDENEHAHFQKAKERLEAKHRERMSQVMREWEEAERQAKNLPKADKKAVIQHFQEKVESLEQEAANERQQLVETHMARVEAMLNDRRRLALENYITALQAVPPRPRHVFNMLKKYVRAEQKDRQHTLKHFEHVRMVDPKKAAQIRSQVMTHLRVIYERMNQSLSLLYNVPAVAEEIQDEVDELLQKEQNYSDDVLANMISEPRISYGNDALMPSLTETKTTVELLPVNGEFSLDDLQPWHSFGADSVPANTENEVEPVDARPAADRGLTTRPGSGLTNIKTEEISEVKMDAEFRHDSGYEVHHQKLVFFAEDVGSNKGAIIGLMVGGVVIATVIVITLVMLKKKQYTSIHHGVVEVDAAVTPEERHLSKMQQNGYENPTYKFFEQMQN

Compound	EC50 [1]	inhibition [2]	inhibition [3]	EC50 [4]
O=C(O)c1cc(O)c(O)c(O)c1-c1c(C(=O)O)cc(O)c(O)c1O	562 µM	< 0.01%	< 0.01%	–
O=C(O[C@@H]1O[C@@H]2COC(=O)c3cc(O)c(O)c(O)c3-c3c(cc(O)c(O)c3O)C(=O)O[C@H]([C@H]1O)[C@@H]2O)c1cc(O)c(O)c(O)c1 [CORILAGIN]	5.04 µM	25%	14%	14 µM
O=c1oc2c(O)c(O)cc3c(=O)oc4c(O)c(O)cc1c4c23 [ELLAGIC ACID]	563 µM	0.15%	< 0.01%	–
O=C(O)c1cc(O)c(O)c(O)c1 [GALLIC ACID]	18.8 µM	92%	–	9.99 µM
O=C1O[C@H]2[C@@H]3OC(=O)c4cc(O)c(O)c(O)c4-c4c(cc(O)c(O)c4O)C(=O)OC[C@H]2O[C@@H](OC(=O)c2cc(O)c(O)c(O)c2)[C@@H]3OC(=O)c2cc(O)c(O)c3c2[C@@H]2C1=CC(=O)[C@](O)(O3)C2(O)O [GERANIIN]	7.03 µM	–	–	10.5 µM
